Data set [1] deals with astroglial cells transfected with Ascl1-RFP. The experiment in a line: Lipid peroxidation (C11-Bodipy staining) and glutathione detection during reprogramming. The data set is classed as cell-based, mouse. The note with it: co-transfected with Ascl1, 2 DPT. The source says:
C, Micrographs show oxidized lipids (C11-Bodipy staining) at 2 DPT in astroglial cells transfected with Ascl1-REP alone or in combination with EE-Bcl-2 or A-Bcl-2. Note higher levels of oxidation in cells transfected with only Ascl1 or Ascl1+EE-BCl-2 (black arrows) compare to cells co-transfected with Ascl1+A-Bcl-2 (black arrowheads). High magnification pictures show partial co-localization of C11-Bodipy staining and DAPI in Ascl1-expressing cells contrarily to cells co-transfected with Ascl1+EE-Bcl-2 (see arrows).
D, Pictures show glutathione (GSH) detection of same cells shown in C. Cells with normal or increased levels of GSH are depicted by arrowheads and arrows respectively.
These observations open the question of why EE-Bcl-2 has no effect in neuronal reprogramming while A-Bcl-2 has.
For the detection of oxidative stress we used CellROX green Reagent (Life technologies, C10444) according with the described protocol and fluorescence was detected by microscope (see below).

Data set [2] has as its system Mouse embryonic fibroblasts (MEFs). Put plainly: Fibroblast-to-neuron reprogramming of MEFs with retroviral vectors, β-III-tubulin immunostaining. Type of data set: cell-based.
Data set [3] deals with postnatal mouse astrocytes. The note with it: co-transfected with Ascl1-RFP, 4 days.
Procedure: (C) Histogram of astroglial cultures transfected with Ascl1-RFP-encoding plasmid alone or in combination with WT-Bcl-2, EE-Bcl-2 or A-Bcl-2 at 4 days post-transfection (DPT). The number of transfected cells (RFP+) at final time point (4 DPT) was normalized to the initial number of transfected cells (1 DPT) to calculate the % of survival. The % of neuronal conversion was analysed by β-III-tubulin immunostaining and normalized to total number of RFP+ cells at the end of the experiment. Error bars indicate ±SD. *p<0.05, **p<0.01; ANOVA Tukeys post-test.
A, Quantifications at 5 DPT (days post-transfection) showing the effect of the inhibitor of ferroptosis, α-toc and the inhibitor of apoptosis, ZVAD in survival/efficiency of conversion of astroglial cells transfected with Ascl1-RFP.
C, Percentage of neurons in astroglial cells transfected with Ascl1-encoding plasmid alone or in combination with Bcl-2 and/or Vdr at 5 DPT after 4 days of treatment with calcitriol or untreated.
After removal of the meninges, grey matter tissue was dissected from P5-P7 cerebral cortex of C57BL/6J mice and dissociated mechanically. Subsequently, cells were centrifuged for 5 min at 1000 rpm, re-suspended, and plated in medium consisting of DMEM/F12 (Gibco), 3.5 mM glucose (Sigma), 10% fetal calf serum (Gibco), 5% horse serum (Gibco), penicillin/streptomycin (Gibco) and supplemented with B27 (Gibco), 10 ng/mL epidermal growth factor (EGF, Roche) and 10 ng/mL fibroblast growth factor 2 (FGF2, Roche). After one week expansion cells were harvested using trypsin/EDTA (Gibco) and plated onto poly-D-lysine (Sigma-Aldrich) coated glass coverslips in 24-well plates (BD Biosciences) or directly onto the plastic for time lapse experiments at a density of 60,000 cells per well in the same medium. After 24 hours cells were either transfected with plasmid or infected with retroviral vectors and after further 24 hours medium was changed to differentiation medium composed of DMEM/F12 high glucose with GlutaMAX, penicillin/streptomycin and B27 supplement (Gibco) to allow neuronal differentiation.
For transfection DNA-liposome complexes were prepared in Optimem medium (Invitrogen) using the retroviral plasmids described below and Lipofectamine 2000 (Invitrogen). Astrocyte cultures were exposed to DNA-liposome complexes at a concentration of 0.5 μg DNA per 400 μl of Optimem medium for 4 hours and cultured after that in the differentiation medium as above.
Cells were fixed in 4% paraformaldehyde (PFA) in phosphate-buffered saline (PBS) for 10 min at room temperature (RT), washed in PBS and pretreated in 0.5% Triton X-100 in PBS for 30 min, followed by incubation in 2% BSA and 0.5% Triton X-100 in PBS for 30 min. Primary antibodies were incubated on specimen overnight at 4° C. in 2% BSA, 0.5% Triton X-100 in PBS.
The subject of the next data set is MEFs. The note with it: MyoD + A-Bcl-2 vs MyoD/GFP.

As for “A-Bcl-2: S70A recombinant Bcl-2 with reduced ability to interact with Bax, mimics the un-phosphorylated form”, the “effect on lipid peroxidation / oxidative stress (C11-Bodipy)” value in data set [1] is given as “very efficiently reducing oxidative stress”. In data set [2] (Ascl1-based retroviral vectors, 14 days after infection), the “neuronal conversion in MEFs (β-III-tubulin)” value is more than 75%. In addition, in data set [2] (Neurog2 + A-Bcl-2 vs Neurog2/RFP), the “increase of proportion of neurons induced from MEFs” value was determined as 6 ×. The “proportion of neurons induced from MEFs, of all infected cells” value in data set [2] (Neurog2-based retroviral vectors, 15 days after infection) is 63%. Besides, in data set [3], the “effect on cell survival during reprogramming” value is on record as “decreased survival compared to those transfected with WT-Bcl-2- or EE-Bcl-2-encoding plasmids”. Moreover, the “effect on proportion of neuronal conversion mediated by Ascl1” value in data set [3] (β-III-tubulin) was “increased proportion of neurons induced from the transfected astrocytes”. In addition, the “speed of conversion into skeletal muscle cells” value with MEFs was “converted much faster into skeletal muscle cells”.

Values taken from patent publication US10752881B2, “Trans-differentiation of differentiation cells” (Helmholtz Zentrum München-Deutsches Forschungszentrum für …, priority 2014, dated 2020).
